Data on 18 compounds can be found in ChEMBL document CHEMBL1130500 (Bioorg Med Chem Lett, 1997).

Each structure is given as a SMILES string.

The target in assay [1] is T1, Cholecystokinin receptor type A (Rattus norvegicus, UniProt P30551).
T1 sequence (P30551 whole entry): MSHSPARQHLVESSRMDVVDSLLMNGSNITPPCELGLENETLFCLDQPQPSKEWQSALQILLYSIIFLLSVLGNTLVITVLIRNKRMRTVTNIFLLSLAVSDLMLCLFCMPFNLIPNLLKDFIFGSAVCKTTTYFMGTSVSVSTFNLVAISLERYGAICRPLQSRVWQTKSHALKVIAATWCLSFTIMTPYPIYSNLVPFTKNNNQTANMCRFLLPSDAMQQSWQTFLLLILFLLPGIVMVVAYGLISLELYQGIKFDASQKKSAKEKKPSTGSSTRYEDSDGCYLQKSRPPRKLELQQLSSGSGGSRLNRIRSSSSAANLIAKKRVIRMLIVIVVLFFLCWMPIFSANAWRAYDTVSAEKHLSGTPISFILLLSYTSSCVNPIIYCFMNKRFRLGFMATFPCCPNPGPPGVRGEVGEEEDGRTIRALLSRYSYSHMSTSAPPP

The target of assay [2] is T2, Cholecystokinin receptor type A (Rattus norvegicus) (UniProt P30551).
T2 sequence (whole entry): T1 sequence (P30551 whole entry)
The conditions noted are these: 1 uM.

The target of assay [3] is T3, Gastrin/cholecystokinin type B receptor (Mus musculus) (UniProt P56481).
T3 sequence (whole entry): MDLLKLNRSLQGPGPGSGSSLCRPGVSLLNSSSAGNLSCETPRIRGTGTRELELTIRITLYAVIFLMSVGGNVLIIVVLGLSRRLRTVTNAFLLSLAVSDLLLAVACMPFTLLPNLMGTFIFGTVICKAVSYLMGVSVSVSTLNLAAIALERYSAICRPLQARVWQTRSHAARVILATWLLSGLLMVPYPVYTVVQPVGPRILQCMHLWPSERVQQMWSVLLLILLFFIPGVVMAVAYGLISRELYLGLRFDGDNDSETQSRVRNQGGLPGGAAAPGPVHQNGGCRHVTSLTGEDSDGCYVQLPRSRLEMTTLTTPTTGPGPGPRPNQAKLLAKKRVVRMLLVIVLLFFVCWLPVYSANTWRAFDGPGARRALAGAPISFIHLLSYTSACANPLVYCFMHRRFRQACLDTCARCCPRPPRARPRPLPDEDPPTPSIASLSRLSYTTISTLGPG
It is filed as tissue-based. The conditions noted are these: Cerebral cortex; 1 uM.

The target in assay [4] is T2, Cholecystokinin receptor type A (Rattus norvegicus). The following applies: 10 uM.
In assay [5] the target is T3, Gastrin/cholecystokinin type B receptor (Mus musculus). It is filed as tissue-based. The following applies: Cerebral cortex; 10 uM.

In the case of `CN(C)C(=O)c1oc2ccccc2c1CC(C)(NC(=O)OC1C2CC3CC(C2)CC1C3)C(=O)NCCc1ccccc1` (centres undefined), the IC50 in assay [1] came out at 65 nM. This counts as double-digit nanomolar.

For the compound `C[C@@](Cc1c[nH]c2ccccc12)(NC(=O)OC1C2CC3CC(C2)CC1C3)C(=O)N[C@H](CO)[C@H](O)c1ccccc1` (some centres undefined), 681 nM corresponded to half-maximal inhibition in assay [1] (IC50).

On to `COc1ccc(CC(C)(NC(=O)OC2C3CC4CC(C3)CC2C4)C(=O)N[C@H](CO)[C@H](O)c2ccccc2)cc1` (some centres undefined), for which the inhibition in assay [2] is 43%.

Turning to `CC(=O)Nc1nc(CC(C)(NC(=O)OC2C3CC4CC(C3)CC2C4)C(=O)NCCc2ccccc2)cs1` (centres undefined), the IC50 in assay [1] amounted to 5350 nM. This counts as single-digit micromolar.

Take `CC(CCCN1C(=O)c2ccccc2C1=O)(NC(=O)OC1C2CC3CC(C2)CC1C3)C(=O)NCCc1ccccc1` (centres undefined): the inhibition in assay [3] amounted to 8%.

In assay [1], `O=C(NC1(C(=O)NCCc2ccccc2)CC2(Cc3cccc4cccc(c34)C2)C1)OC1C2CC3CC(C2)CC1C3` (centres undefined) showed an IC50 of 7220 nM.

Consider `O=C(CCC(=O)OCc1ccccc1)N[C@@H](CNC(=O)C(Cc1c[nH]c2ccc(F)cc12)NC(=O)OC1C2CC3CC(C2)CC1C3)c1ccccc1` (some centres undefined), for which it took 583 nM to reach half-maximal inhibition in assay [1] (IC50).

Take `CC(Cc1ccc2c(c1)C(C)(C)CCC2(C)C)(NC(=O)OC1C2CC3CC(C2)CC1C3)C(=O)NCCc1ccccc1` (centres undefined): half-maximal inhibition in assay [1] (IC50) required 19800 nM.

`O=C(NC1(C(=O)NCCc2ccccc2)Cc2ccccc2C1)OC1C2CC3CC(C2)CC1C3` (centres undefined): in assay [4], the inhibition was determined as 22%.

With `CC(CCCN)(NC(=O)OC1C2CC3CC(C2)CC1C3)C(=O)NCCc1ccccc1` (centres undefined), in assay [3], the inhibition came out at 3%.

Turning to `O=C(O)CCC(=O)N[C@@H](CNC(=O)C1(NC(=O)OC2C3CC4CC(C3)CC2C4)Cc2ccccc2C1)c1ccccc1` (some centres undefined), the IC50 in assay [1] was 1350 nM. This lies in the single-digit micromolar range.

As to `CC(Cc1c[nH]c2ccc(F)cc12)(NC(=O)OC1C2CC3CC(C2)CC1C3)C(=O)NC[C@H](NC(=O)CCC(=O)O)c1ccccc1` (some centres undefined), it took 2180 nM to reach half-maximal inhibition in assay [1] (IC50).

In turn, `Cc1noc(C)c1CC(C)(NC(=O)OC1C2CC3CC(C2)CC1C3)C(=O)NCCc1ccccc1` (centres undefined) came in with an IC50 in assay [1] of 6940 nM.

`C[C@](Cc1c[nH]c2ccc(F)cc12)(NC(=O)OC1C2CC3CC(C2)CC1C3)C(=O)NC[C@H](NC(=O)CCC(=O)O)c1ccccc1` (some centres undefined) yielded an IC50 in assay [1] of 2860 nM. Compared with the last compound, the IC50 is about 2.4-fold lower.

In assay [1], `CC(Cc1c[nH]c2ccc(F)cc12)(NC(=O)OC1C2CC3CC(C2)CC1C3)C(=O)NC[C@H](NC(=O)CCC(=O)OCc1ccccc1)c1ccccc1` (some centres undefined) yielded an IC50 of 2650 nM. This IC50 and that of the compound before are within 1.5-fold of each other.

Compound `CC(Cc1ccc(Oc2ccccc2)cc1)(NC(=O)OC1C2CC3CC(C2)CC1C3)C(=O)N[C@H](CO)[C@H](O)c1ccccc1` (some centres undefined) displayed an IC50 in assay [1] of 616 nM.

In the case of `O=C(O)CCC(=O)N[C@@H](CNC(=O)C(Cc1c[nH]c2ccc(F)cc12)NC(=O)OC1C2CC3CC(C2)CC1C3)c1ccccc1` (some centres undefined), inhibition in assay [1] was half-maximal at 1910 nM (IC50).

With `Cc1noc(C)c1-c1nc(CC(C)(NC(=O)OC2C3CC4CC(C3)CC2C4)C(=O)NCCc2ccccc2)no1` (centres undefined), the inhibition came to 28% in assay [5] and 20% in assay [4].

What is called IC50 is the concentration that inhibits the measured activity by half. A low value points to greater potency. The term inhibition denotes the change of the read-out against control, counted positive when it falls.
